Molecular target: T1, Solute carrier family 15 member 1 (Homo sapiens, UniProt P46059)
T1 sequence (P46059 whole entry): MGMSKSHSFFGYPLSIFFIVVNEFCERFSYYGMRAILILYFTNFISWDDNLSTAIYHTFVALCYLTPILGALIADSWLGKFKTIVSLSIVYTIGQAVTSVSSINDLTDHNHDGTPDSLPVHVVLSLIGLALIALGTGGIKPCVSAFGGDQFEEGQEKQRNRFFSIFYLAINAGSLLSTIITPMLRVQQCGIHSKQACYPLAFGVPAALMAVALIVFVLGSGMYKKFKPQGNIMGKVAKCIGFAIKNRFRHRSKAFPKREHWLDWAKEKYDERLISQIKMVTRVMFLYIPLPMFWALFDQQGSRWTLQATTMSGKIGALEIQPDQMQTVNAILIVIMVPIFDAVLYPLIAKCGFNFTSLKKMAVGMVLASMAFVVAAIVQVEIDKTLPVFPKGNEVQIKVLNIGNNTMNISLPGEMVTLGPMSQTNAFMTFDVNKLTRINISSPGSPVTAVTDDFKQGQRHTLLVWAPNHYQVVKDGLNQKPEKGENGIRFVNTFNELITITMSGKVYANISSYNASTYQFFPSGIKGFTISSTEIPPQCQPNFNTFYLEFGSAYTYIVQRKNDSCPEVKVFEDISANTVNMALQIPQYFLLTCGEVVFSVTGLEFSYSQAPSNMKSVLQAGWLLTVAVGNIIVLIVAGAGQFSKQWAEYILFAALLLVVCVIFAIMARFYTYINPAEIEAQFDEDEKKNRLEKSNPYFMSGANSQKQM
Assay: TP_TRANSPORTER: inhibition of Gly-Sar uptake in Caco-2 cells
Format: functional, cell-based

Structure (SMILES)	Ki [µM]
CN(CC(=O)O)C(=O)[C@@H](N)CCC(=O)OCCOCn1cnc2c(=O)[nH]c(N)nc21	280
Cc1cn(COC(=O)C(O)C[C@H](N)C(=O)N(C)CC(=O)O)c(=O)[nH]c1=O (some centres not stated)	210

Source: ChEMBL document CHEMBL2074474, “Prodrugs of purine and pyrimidine analogues for the intestinal di/tri-peptide transporter PepT1: affinity for hPepT1 in Caco-2 cells, drug release in aqueous media and in vitro metabolism” (J Control Release, 2003)
